The source of these data is PubChem BioAssay AID210 (DTP/NCI, 2004).

Where “and” joins values, the source holds several entries; their conditions need not be identical. Identical values can stand only once. Toxic doses and inconclusive results are not listed.

The test concerns CD2F1 mice, ip Colon 26 adenocarcinoma, median survival T/C. The experiment in a line: NCI In Vivo Anticancer Drug Screen. Data for tumor model Colon 26 Adenocarcinoma (intraperitoneal) in CD2F1 (CDF1) mice. Particulars: endpoint: median survival time, higher = longer survival. As to the method: The antitumor activity of compounds was measured in mice bearing transplantable tumors. Survival or tumor size were measured and the results are expressed as the measurement made in the treated group (T) divided by the measurement made in the vehicle treated control group (C). The tumor model used in this assay is Colon 26 Adenocarcinoma (intraperitoneal) in CD2F1 (CDF1) mice

[1] abbreviates: dose: 6.25 mg/kg/injection, schedule: Q04DX003 (ip), vehicle: Klucel (hydroxypropylcellulose) (HPC).
Setting [2] is: dose: 12.5 mg/kg/injection, schedule: Q04DX003 (ip), vehicle: Klucel (hydroxypropylcellulose) (HPC).
Where [3] appears, read: dose: 25.0 mg/kg/injection, schedule: Q04DX003 (ip), vehicle: Klucel (hydroxypropylcellulose) (HPC).
[4] abbreviates: dose: 100.0 mg/kg/injection, schedule: Q04DX003 (ip), vehicle: Klucel (hydroxypropylcellulose) (HPC).
The mark [5] stands for this setting: dose: 25.0 mg/kg/injection, schedule: Q04DX003 (ip), vehicle: saline.
The mark [6] stands for this setting: dose: 50.0 mg/kg/injection, schedule: Q04DX003 (ip), vehicle: saline.
Setting [7] is: dose: 50.0 mg/kg/injection, schedule: Q04DX003 (ip), vehicle: Klucel (hydroxypropylcellulose) (HPC).
[8] abbreviates: dose: 200.0 mg/kg/injection, schedule: Q04DX003 (ip), vehicle: Klucel (hydroxypropylcellulose) (HPC).

For the compound `CSc1cc(=O)n2c3ccccc3c3ccnc1c32`, the T/C is, setting by setting: (dose: 2.5 mg/kg/injection, schedule: Q04DX003 (ip), vehicle: saline with Tween-80) 100 % of control; (dose: 5.0 mg/kg/injection, schedule: Q04DX003 (ip), vehicle: saline with Tween-80) 115 % of control; (dose: 20.0 mg/kg/injection, schedule: Q04DX003 (ip), vehicle: saline with Tween-80) 151 % of control.

On to `CCOC(=O)c1c[nH]c2oc(/C=N/N3CC(CN4CCOCC4)OC3=O)cc2c1=O` (stereo unspecified), for which the T/C was 97 % of control (dose: 12.5 mg/kg/injection, schedule: Q04DX003 (ip), vehicle: suspension in saline); 90 % of control (dose: 25.0 mg/kg/injection, schedule: Q04DX003 (ip), vehicle: suspension in saline); 96 % of control (dose: 50.0 mg/kg/injection, schedule: Q04DX003 (ip), vehicle: suspension in saline); 90 % of control (dose: 100.0 mg/kg/injection, schedule: Q04DX003 (ip), vehicle: suspension in saline); 101 % of control (dose: 200.0 mg/kg/injection, schedule: Q04DX003 (ip), vehicle: suspension in saline); 101 % of control (dose: 400.0 mg/kg/injection, schedule: Q04DX003 (ip), vehicle: suspension in saline).

`CCCC(=O)OCc1cc(=O)n(C)c2c3c4c(cc12)c(C)cc(=O)n4CO3`: the T/C is, setting by setting: under setting [1], 98 % of control; under setting [2], 104 % of control; under setting [3], 123 % of control; under setting [4], 152 % of control.

Regarding `COc1cc([C@@H]2c3cc4c(cc3[C@@H](OC3OC5CO[C@@H](c6cccs6)OC5C(O)C3O)[C@H]3COC(=O)[C@H]23)OCO4)cc(OC)c1O` (stereo partly specified), the T/C reads like this: (dose: 5.0 mg/kg/injection, schedule: Q03DX002 (ip), vehicle: other) 90 % of control; (dose: 10.0 mg/kg/injection, schedule: Q03DX002 (ip), vehicle: other) 92 % of control; (dose: 30.0 mg/kg/injection, schedule: Q03DX002 (ip), vehicle: other) 104 % of control.

Regarding `COc1cccc2c1C(=O)c1c(O)c3c(c(O)c1C2=O)C[C@@](O)(C(C)=O)C[C@@H]3OC1CC(N(Cc2ccccc2)Cc2ccccc2)C(O)C(C)O1` (stereo partly specified), the T/C (dose: 3.0 mg/kg/injection, schedule: Q04DX002 (ip), vehicle: saline with Tween-80) is 104 % of control.

Take `NCCc1ccc(O)c(O)c1`: the T/C under setting [5] is 94 % of control and the T/C under setting [6] is 109 % of control.

Regarding `COc1cccc2c1C(=O)c1c(O)c3c(c(O)c1C2=O)C[C@@](O)(C(C)=O)C[C@@H]3OC1CC(N(C)C)C(O)C(C)O1` (stereo partly specified), the T/C is, setting by setting: (dose: 4.5 mg/kg/injection, schedule: Q07DX002 (iv), vehicle: saline) 109 % of control; (dose: 5.4 mg/kg/injection, schedule: Q04DX003 (ip), vehicle: water) 119 % of control; (dose: 7.0 mg/kg/injection, schedule: Q07DX002 (iv), vehicle: saline) 114 % of control; (dose: 11.0 mg/kg/injection, schedule: Q07DX002 (iv), vehicle: saline) 113 % of control; (dose: 15.0 mg/kg/injection, schedule: Q04DX003 (ip), vehicle: water) 88 % of control; (dose: 18.0 mg/kg/injection, schedule: Q07DX002 (iv), vehicle: saline) 109 % of control. Moreover, the T/C runs as follows: (dose: 27.0 mg/kg/injection, schedule: Q07DX002 (iv), vehicle: saline) 108 % of control; (dose: 41.0 mg/kg/injection, schedule: Q07DX002 (iv), vehicle: saline) 94 % of control.

`Cc1ncc([N+](=O)[O-])n1CCO`: the T/C runs as follows: (dose: 37.5 mg/kg/injection, schedule: Q04DX003 (ip), vehicle: Klucel (hydroxypropylcellulose) (HPC)) 114 % of control; (dose: 75.0 mg/kg/injection, schedule: Q04DX003 (ip), vehicle: Klucel (hydroxypropylcellulose) (HPC)) 118 % of control; (dose: 150.0 mg/kg/injection, schedule: Q04DX003 (ip), vehicle: Klucel (hydroxypropylcellulose) (HPC)) 106 % of control; (dose: 300.0 mg/kg/injection, schedule: Q04DX003 (ip), vehicle: Klucel (hydroxypropylcellulose) (HPC)) 109 % of control; (dose: 600.0 mg/kg/injection, schedule: Q04DX003 (ip), vehicle: Klucel (hydroxypropylcellulose) (HPC)) 108 % of control.

`COc1cc(C[C@H]2c3cc(OC)c(OC)cc3CCN2C)c(Oc2cc3c(cc2OC)-c2c(OC)c(OC)cc4c2[C@H](C3)N(C)CC4)cc1OC`: the T/C was 89 % of control under setting [5]; 95 % of control under setting [6]; 90 % of control (dose: 100.0 mg/kg/injection, schedule: Q04DX003 (ip), vehicle: saline); 93 % of control (dose: 200.0 mg/kg/injection, schedule: Q04DX003 (ip), vehicle: saline); 95 % of control (dose: 400.0 mg/kg/injection, schedule: Q04DX003 (ip), vehicle: saline).

On to `C#C[C@]1(O)CC[C@H]2[C@@H]3CCc4cc(O)ccc4[C@H]3CC[C@@]21C`, for which the T/C runs as follows: under setting [3], 103 % of control; under setting [7], 100 % of control; under setting [4], 96 % of control; under setting [8], 90 % of control; (dose: 400.0 mg/kg/injection, schedule: Q04DX003 (ip), vehicle: Klucel (hydroxypropylcellulose) (HPC)) 86 % of control.

Turning to `COc1cc(C)c2c(c1C=O)Oc1c(c(C)c(O)c3c1C(O)OC3=O)OC2=O` (stereo unspecified), the T/C (dose: 3.12 mg/kg/injection, schedule: Q04DX003 (ip), vehicle: saline with Tween-80) was 103 % of control; the T/C (dose: 6.25 mg/kg/injection, schedule: Q04DX003 (ip), vehicle: saline with Tween-80) was 103 % of control; the T/C (dose: 12.5 mg/kg/injection, schedule: Q04DX003 (ip), vehicle: saline with Tween-80) is 104 % of control; the T/C (dose: 25.0 mg/kg/injection, schedule: Q04DX003 (ip), vehicle: saline with Tween-80) was 101 % of control; the T/C (dose: 50.0 mg/kg/injection, schedule: Q04DX003 (ip), vehicle: saline with Tween-80) was 112 % of control.

Regarding `CCC1OCC(C(Cl)CCl)O1` (stereo unspecified), the T/C is 116 % of control under setting [2]; 97 % of control under setting [3]; 99 % of control under setting [7]; 104 % of control under setting [4]; 92 % of control under setting [8].

Turning to `COC(=O)Nc1cccc(-c2nc3ccc(NC(=O)OC)cc3c(=O)n2-c2ccccc2)c1`, the T/C (dose: 64.0 mg/kg/injection, schedule: Q04DX003 (ip), vehicle: Klucel (hydroxypropylcellulose) (HPC)) was 171 % of control.

Take `CC[C@@]1(O)C[C@H](OC2CC(N(C)C)C(OC3CC(O)C(OC4CCC(=O)C(C)O4)C(C)O3)C(C)O2)c2c(cc3c(c2O)C(=O)c2c(O)cccc2C3=O)[C@H]1C(=O)OC` (stereo partly specified): the T/C reads like this: (dose: 6.2 mg/kg/injection, schedule: Q07DX003 (iv), vehicle: water) 105 % of control; (dose: 10.0 mg/kg/injection, schedule: Q07DX003 (iv), vehicle: water) 119 % of control; (dose: 16.0 mg/kg/injection, schedule: Q07DX003 (iv), vehicle: water) 117 % of control.

For `S=c1nc[nH]c2nc[nH]c12`, the T/C is 115 % of control under setting [1]; 110 % of control under setting [2]; 191 % of control and 252 % of control under setting [7]; 171 % of control under setting [4]; 86 % of control under setting [8].

With `Cc1c(N)nc([C@H](CC(N)=O)NC[C@H](N)C(N)=O)nc1C(=O)N[C@H](C(=O)N[C@H](C)[C@@H](O)[C@H](C)C(=O)N[C@H](C(=O)NCCc1nc(-c2nc(C(=O)NCCC[S+](C)C)cs2)cs1)[C@@H](C)O)C(OC1OC(CO)C(O)C(O)C1OC1OC(CO)C(O)C(OC(N)=O)C1O)c1cnc[nH]1` (stereo partly specified), the T/C (dose: 1.0 mg/kg/injection, schedule: Q01DX009 (ip), vehicle: saline) was 115 % of control; the T/C (dose: 2.0 mg/kg/injection, schedule: Q01DX009 (ip), vehicle: saline) was 111 % of control; the T/C (dose: 4.0 mg/kg/injection, schedule: Q01DX009 (ip), vehicle: saline) is 107 % of control; the T/C (dose: 8.0 mg/kg/injection, schedule: Q01DX009 (ip), vehicle: saline) was 111 % of control; the T/C (dose: 16.0 mg/kg/injection, schedule: Q01DX009 (ip), vehicle: saline) is 111 % of control.
